Where two headings read alike, the source gives them in different places.
Experiments:
liver of rats = conditions: cited from earlier work
[1] = test system: livers from treated male Sprague-Dawley rats
Method: Briefly, in vivo short-term repeat dose rat studies were conducted on over 580 test compounds, including marketed and withdrawn drugs, environmental and industrial toxicants, and standard biochemical reagents. Rats (three per group) were dosed daily at either a low or high dose. […] Animals were necropsied on days 0.25, 1, 3, and 5 or 7. Up to 13 tissues (e.g., liver, kidney, heart, bone marrow, blood, spleen, brain, intestine, glandular and nonglandular stomach, lung, muscle, and gonads) were collected for histopathological evaluation and microarray expression profiling on the Amersham CodeLink™ RU1 platform (also referred to herein as “CodeLink Uniset™ Rat 1 Bioarray”). In addition, a clinical pathology panel consisting of 37 clinical chemistry and hematology parameters was generated from blood samples collected on days 3 and 5.
The remaining 21 NGTC chemicals and 26 NC chemicals were reserved for independent validation of the signature. Each chemical was evaluated in a short term repeat dose in vivo study in male Sprague-Dawley rats (n=3/group). The livers from treated and control rats were collected after 1, 3 and 5 days of dosing and RNA was extracted for gene expression profiling. Gene expression changes in treated animals were compared to suitably matched controls and represented as average log10 ratios for each treatment group. Since the development of tumors is a long term multi-step process, the 100 training set chemicals were profiled at the latest time point in order to capture gene expression changes that were likely to be reflective of repeat dose treatment effects that contribute to carcinogenicity and not reflective of an initial stimulus following a single dose that may be transient in nature.
Male Sprague-Dawley (Crl:CD®(SD)(IGS)BR) rats (weight matched, 7 to 8 weeks of age and averaging 200 to 250 g) were purchased from Charles River Laboratories (Portage, Mich.) and housed individually in hanging, stainless steel, wire-bottom cages in a temperature (66-77° F.), light (12-hour dark/light cycle) and humidity (30-70%) controlled room. […] Housing and treatment of the animals were in accordance with regulations outlined in the USDA Animal Welfare Act (9 CFR Parts 1, 2 and 3). Animals were assigned to groups such that mean body weights were within 10% of the mean vehicle control group. Test articles were administered either orally (10 ml of corn oil/kg body weight) or by intra-peritoneal injection (5 ml of saline/kg body weight), as indicated. Animals were dosed once daily starting on day 0, and necropsied 24 hrs after the last dose, as indicated. An equivalent number of time- and vehicle-matched control rats were treated concurrently.
Briefly, liver samples from 3 rats were chosen from each treatment and control group for gene expression analysis on the Codelink Uniset™ Rat 1 Bioarray (GE Healthcare Bio-Sciences Corp., Piscataway, N.J.). A complete list of probes on the array is provided on the Amersham Biosciences web site (www.amershambiosciences.com). Log transformed signal data for all probes were array-wise normalized used Array Qualifier (Novation Biosciences, Palo Alto, Calif.), a non-linear centralization normalization procedure adapted for the CodeLink microarray platform. Log10 ratios for each experimental group are computed as the difference between the average of the logs of the normalized experimental signals and the average of the logs of the normalized control signals for each gene.
where S is the scalar product and b is the bias term. Evaluation of S for a test experiment across the n genes in the signature determines what side of the hyperplane in m dimensional space the test experiment lies, and thus the result of the classification. Experiments with scalar products greater than 0 are considered positive for non-genotoxic hepatocarcinogenicity.

[2] = literature-curated: induction of neoplastic lesions in the liver of rats, two year rodent bioassay results and/or class effect information
[3] = male, Sprague-Dawley, rat, in vivo
[4] = maximum of days 1, 3, 5, greater than zero = classified non-genotoxic hepatocarcinogen

Molecule: Cc1cccc(Nc2cc(Cl)nc(SCC(=O)O)n2)c1C [PIRINIXIC ACID]
- Class (liver of rats; [2]): NGTC

Molecule: CN(C)[C@@H]1C(O)=C(C(N)=O)C(=O)[C@@]2(O)C(O)=C3C(=O)c4c(O)cccc4[C@@](C)(O)[C@H]3C[C@@H]12 [TETRACYCLINE]
- Day 1 (scalar product) ([1]; male, rat, in vivo): −0.40
- Day 3 (scalar product) ([1]; male, rat, in vivo): −1.18
- Day 5 (scalar product) ([1]; male, rat, in vivo): −1.31
- Max (maximum scalar product observed over the multiple time points) ([1]; male, rat, in vivo): −0.40

Molecule: CCN(CC)CCOc1ccc(C(=C(Cl)c2ccccc2)c2ccccc2)cc1 [CLOMIPHENE]
- Max (maximum scalar product observed over the multiple time points) [1, 3]: −1.71

Molecule: CC(=O)[C@H]1CC[C@H]2[C@@H]3CCC4=CC(=O)CC[C@]4(C)[C@H]3CC[C@]12C [PROGESTERONE]
- Class (liver of rats; [2]): NGTC

Molecule: Nc1ccn([C@@H]2O[C@H](CO)[C@@H](O)[C@@H]2O)c(=O)n1 [CYTARABINE]
- Max (maximum scalar product observed over the multiple time points) [1, 3]: −0.71

Molecule: aflatoxin B1
- Class (liver of rats; rat, in vivo): GTC

Molecule: C=C(Cl)Cl [1,1-dichloroethene, reference compound]
- signature prediction for non-genotoxic hepatocarcinogenicity ([1]; 37 gene signature, maximum scalar product over days 1, 3 and 5, scalar product greater than zero = positive): negative
- Max (maximum scalar product observed over the multiple time points) [1, 4]: −0.80

Molecule: CN(C)CCN(Cc1cccs1)c1ccccn1
- Class (liver of rats; [2]): NGTC

Molecule: C[C@]12C/C(=C/O)C(=O)C[C@@H]1CC[C@@H]1[C@@H]2CC[C@@]2(C)[C@H]1CC[C@]2(C)O [OXYMETHOLONE]
- Max (maximum scalar product observed over the multiple time points) [1, 4]: −0.36

Molecule: CC[C@H](C)C(=O)O[C@H]1C[C@H](O)C=C2C=C[C@H](C)[C@H](CC[C@@H](O)C[C@@H](O)CC(=O)O)[C@H]21 [PRAVASTATIN]
- Class (liver of rats; [2]): NGTC

Molecule: CC(O)CO (centres unmarked) [propylene glycol, reference compound]
- Max (maximum scalar product observed over the multiple time points) [1, 3]: −0.80
- signature prediction for non-genotoxic hepatocarcinogenicity ([1]; rat, in vivo): negative

Molecule: Clc1ccc2c(c1)C(N1CCNCC1)=Nc1ccccc1O2 [AMOXAPINE]
- Max (maximum scalar product observed over the multiple time points) [1, 3]: −1.00

Molecule: C=C1CC[C@H](O)C/C1=C/C=C1\CCC[C@]2(C)[C@@H]([C@H](C)CCCC(C)C)CC[C@@H]12 [CHOLECALCIFEROL]
- Max (maximum scalar product observed over the multiple time points) [1, 4]: −1.38

Molecule: CCO [ETHANOL]
- Class (liver of rats; [2]): NGTC

Molecule: CC(C)(Oc1ccc(C2CCCc3ccccc32)cc1)C(=O)O (centres unmarked) [NAFENOPIN]
- Class (liver of rats; [2]): NGTC

Molecule: CC(C)=CCC/C(C)=C/CO [GERANIOL]
- Max (maximum scalar product observed over the multiple time points) [1, 4]: −0.30

Molecule: CCOC(=O)C(C)(C)Oc1ccc(Cl)cc1 [CLOFIBRATE]
- Class (liver of rats; [2]): NGTC

Molecule: CC(C)c1c(C(=O)Nc2ccccc2)c(-c2ccccc2)c(-c2ccc(F)cc2)n1CC[C@@H](O)C[C@@H](O)CC(=O)O [ATORVASTATIN]
- Max (maximum scalar product observed over the multiple time points) [1, 3]: 1.85

Molecule: CC(C)(Oc1ccc(Cl)cc1)C(=O)O [CLOFIBRIC ACID]
- Max (maximum scalar product observed over the multiple time points) [1, 3]: 0.86

Molecule: CN1C(=O)CN=C(c2ccccc2)c2cc(Cl)ccc21 [DIAZEPAM]
- Day 1 (scalar product) ([1]; male, rat, in vivo): −1.40
- Day 3 (scalar product) ([1]; male, rat, in vivo): −0.06
- Day 5 (scalar product) ([1]; male, rat, in vivo): 0.52
- Max (maximum scalar product observed over the multiple time points) ([1]; male, rat, in vivo): 0.52

Molecule: C[C@]12CCC(=O)C=C1CC[C@@H]1[C@@H]2CC[C@@]2(C)[C@H]1CC[C@]2(C)O [17-METHYLTESTOSTERONE]
- Class (liver of rats; [2]): NGTC

Molecule: Cc1ccc(C)c(OCCCC(C)(C)C(=O)O)c1 [GEMFIBROZIL]
- Class (liver of rats; [2]): NGTC

Molecule: CC(NC(C)(C)C)C(=O)c1cccc(Cl)c1 (centres unmarked) [BUPROPION]
- Class (liver of rats; [2]): NGTC

Molecule: CCOC(=O)n1ccn(C)c1=S [CARBIMAZOLE]
- Max (maximum scalar product observed over the multiple time points) [1, 3]: −0.38

Molecule: CN(C)CCCN1c2ccccc2CCc2ccc(Cl)cc21 [CLOMIPRAMINE]
- Max (maximum scalar product observed over the multiple time points) [1, 3]: −1.46

Molecule: C[C@]12CC[C@@H]3c4ccc(O)cc4CC[C@H]3[C@@H]1C[C@@H](O)[C@@H]2O [ESTRIOL]
- Class (liver of rats; rat, in vivo): NGTC

Molecule: CC(C)(C)NC(=O)[C@H]1CC[C@H]2[C@@H]3CC[C@H]4NC(=O)C=C[C@]4(C)[C@H]3CC[C@]12C [FINASTERIDE]
- Max (maximum scalar product observed over the multiple time points) [1, 3]: 0.22

Molecule: O=C(c1ccc(OCCN2CCCCC2)cc1)c1c(-c2ccc(O)cc2)sc2cc(O)ccc12 [RALOXIFENE, reference compound]
- Max (maximum scalar product) ([1]; female, Sprague-Dawley, rat, in vivo): −0.66
- Day 1 (scalar product) ([1]; female, Sprague-Dawley, rat, in vivo, 1 day): −0.66
- Day 3 (scalar product) ([1]; female, Sprague-Dawley, rat, in vivo, 3 days): −1.25
- Day 5 (scalar product) ([1]; female, Sprague-Dawley, rat, in vivo, 5 days): −2.11

Molecule: CC[C@H]1OC(=O)[C@H](C)[C@@H](O[C@H]2C[C@@](C)(OC)[C@@H](O)[C@H](C)O2)[C@H](C)[C@@H](O[C@@H]2O[C@H](C)C[C@H](N(C)C)[C@H]2O)[C@](C)(O)C[C@@H](C)C(=O)[C@H](C)[C@@H](O)[C@]1(C)O [ERYTHROMYCIN]
- Max (maximum scalar product observed over the multiple time points) [1, 3]: −1.18

Molecule: CN(C)CCCC1(c2ccc(F)cc2)OCc2cc(C#N)ccc21 (centres unmarked) [CITALOPRAM]
- Max (maximum scalar product observed over the multiple time points) [1, 3]: −0.28

Molecule: CCCC(C)C1(CC)C(=O)NC(=O)NC1=O (centres unmarked) [PENTOBARBITAL]
- Class (liver of rats; [2]): NGTC

Molecule: COc1ccc(C(CN(C)C)C2(O)CCCCC2)cc1 (centres unmarked) [VENLAFAXINE]
- Max (maximum scalar product observed over the multiple time points) [1, 4]: −0.95

Molecule: CC(=N)S [THIOACETAMIDE]
- Class (liver of rats; [2]): NGTC

Molecule: CC(C)OC(=O)C(C)(C)Oc1ccc(C(=O)c2ccc(Cl)cc2)cc1 [FENOFIBRATE]
- Class (liver of rats; [2]): NGTC

Molecule: O=C1Nc2ccc(Cl)cc2C(c2ccccc2Cl)=NC1O (centres unmarked) [LORAZEPAM]
- Max (maximum scalar product observed over the multiple time points) [1, 4]: 0.10

Molecule: Cc1ccnc2c1NC(=O)c1cccnc1N2C1CC1 [NEVIRAPINE]
- Max (maximum scalar product observed over the multiple time points) [1, 3]: −0.38

Molecule: C#C[C@]1(O)CC[C@H]2[C@@H]3CCc4cc(O)ccc4[C@H]3CC[C@@]21C [ETHINYLESTRADIOL]
- Class (liver of rats; [2]): NGTC

Molecule: C[C@]12CC[C@@H]3c4ccc(OC(=O)c5ccccc5)cc4CC[C@H]3[C@@H]1CC[C@@H]2O [BETA-ESTRADIOL 3-BENZOATE]
- Day 1 (scalar product) ([1]; Female, 37 gene signature, day 1): 0.81
- Day 3 (scalar product) ([1]; Female, 37 gene signature, day 3): 0.25
- Day 5 (scalar product) ([1]; Female, 37 gene signature, day 5): 0.03
- Max (maximum scalar product) ([1]; Female, maximum of days 1, 3, 5): 0.81

Molecule: Clc1cc2c(cc1Cl)Oc1cc(Cl)c(Cl)cc1O2 [2,3,7,8-TETRACHLORODIBENZO-P-DIOXIN]
- Class (liver of rats; [2]): NGTC

Molecule: CC(C)(C)CC(C)(C)c1ccc(OCCOCC[N+](C)(C)Cc2ccccc2)cc1 [BENZETHONIUM CHLORIDE]
- Day 1 (scalar product) ([1]; male, rat, in vivo): −0.13
- Day 3 (scalar product) ([1]; male, rat, in vivo): −1.34
- Day 5 (scalar product) ([1]; male, rat, in vivo): −1.68
- Max (maximum scalar product observed over the multiple time points) ([1]; male, rat, in vivo): −0.13

Molecule: C=CCc1ccc2c(c1)OCO2 [SAFROLE]
- Class (liver of rats; rat, in vivo): NGTC

Molecule: OCCOCCN1CCN(C2=Nc3ccccc3Sc3ccccc32)CC1 [QUETIAPINE]
- Max (maximum scalar product observed over the multiple time points) [1, 3]: −0.42

Molecule: c1ccc2c(c1)Nc1ccccc1S2 [PHENOTHIAZINE]
- Max (maximum scalar product observed over the multiple time points) [1, 4]: 0.70

Molecule: CCC1=C[C@@H]2CN(C1)Cc1c([nH]c3ccccc13)[C@@](C(=O)OC)(c1cc3c(cc1OC)N(C)[C@H]1[C@@](O)(C(=O)OC)[C@H](OC(C)=O)[C@]4(CC)C=CCN5CC[C@]31[C@@H]54)C2 [VINORELBINE]
- Max (maximum scalar product observed over the multiple time points) [1, 3]: −1.37

Molecule: Cc1cccc(C)c1NC(=O)C(C)N (centres unmarked) [TOCAINIDE]
- Max (maximum scalar product observed over the multiple time points) [1, 3]: −0.91

— patent US20100021885A1, “REAGENT SETS AND GENE SIGNATURES FOR NON-GENOTOXIC HEPATOCARCINOGENICITY” (priority 2006, published 2010)
